Experimental data: EP4578856A1, “HETEROCYCLIC COMPOUND” (Ubience Inc., priority 2022, dated 2024)

Tests used:
[1] = molecular target: T1, ROCK2 protein (Homo sapiens, UniProt O75116); test: ROCK2 kinase inhibitory activity, mobility shift assay (MSA, Carna Biosciences); format: biochemical; parameters: GST (N); purchased Carna Biosciences, Inc; host or cells: baculovirus expression system; settings: for inhibition at 10 µM: evaluation concentration 10 µM; for inhibition at 1 µM: evaluation concentration 1 µM; for IC50: ROCK2 kinase
Description: The ROCK2 kinase inhibitory activity was measured using a mobility shift assay (MSA) provided by Carna Biosciences, Inc.
The test compound was dissolved in DMSO and further diluted with DMSO to prepare a solution having a concentration 100 times the evaluation concentration. The solution was further diluted 25 times with an assay buffer (20 mmol/L HEPES, 0.01% Triton (registered trademark) X-100, 1 mmol/L DTT, pH 7.5) to obtain a test compound solution.
The human ROCK2 kinase was expressed by fusing the catalytic domain (1 to 553 amino acids of Accession No. NP_004841.2) with GST at the N-terminus using the baculovirus expression system. GST-ROCK2 was purified by glutathione sepharose chromatography.
A 4-fold concentration substrate (LIMKtide, 1000 nmol/L) /ATP (5 µmol/L)/metal solution (Mg, 5 mmol/L) was prepared with kit buffer (20 mmol/L HEPES, 0.01% Triton (registered trademark) X-100, 5 mmol/L DTT, pH 7.5). A 2-fold concentration kinase solution was prepared with assay buffer. 5 µL of a 4-fold concentration test compound solution, 5 µL of a 4-fold concentration substrate/ATP/metal solution, and 10 µL of a 2-fold concentration kinase solution were mixed in a well of a polypropylene 384 well plate, and the mixture was reacted at room temperature for 1 hour. 70 µL of termination buffer (127 mmol/L HEPES, 0.01% Triton (registered trademark) X-100, 26.7 mmol/L EDTA-2Na, 1% DMSO, pH 7.5) was added to stop the reaction. The substrate peptide and the phosphorylated peptide in the reaction solution were separated and quantified using a LabChip (trademark) system (Perkin Elmer).
The kinase reaction was evaluated by the product ratio (P/(P + S)) calculated from the substrate peptide peak height (S) and the phosphorylated peptide peak height (P).
The average signal of the control well including all the reaction components was set to 0% suppression, the average signal of the background well (no enzyme added) was set to 100% suppression, and the inhibition rate was calculated from the average signal of the test compound test well.
The ROCK2 inhibition rate and the evaluation concentration of the test compound are shown in Table 4-1, and the IC50 value of the inhibitory activity is shown in Table 4-2. […]
Target sequence in this assay (O75116 1-553): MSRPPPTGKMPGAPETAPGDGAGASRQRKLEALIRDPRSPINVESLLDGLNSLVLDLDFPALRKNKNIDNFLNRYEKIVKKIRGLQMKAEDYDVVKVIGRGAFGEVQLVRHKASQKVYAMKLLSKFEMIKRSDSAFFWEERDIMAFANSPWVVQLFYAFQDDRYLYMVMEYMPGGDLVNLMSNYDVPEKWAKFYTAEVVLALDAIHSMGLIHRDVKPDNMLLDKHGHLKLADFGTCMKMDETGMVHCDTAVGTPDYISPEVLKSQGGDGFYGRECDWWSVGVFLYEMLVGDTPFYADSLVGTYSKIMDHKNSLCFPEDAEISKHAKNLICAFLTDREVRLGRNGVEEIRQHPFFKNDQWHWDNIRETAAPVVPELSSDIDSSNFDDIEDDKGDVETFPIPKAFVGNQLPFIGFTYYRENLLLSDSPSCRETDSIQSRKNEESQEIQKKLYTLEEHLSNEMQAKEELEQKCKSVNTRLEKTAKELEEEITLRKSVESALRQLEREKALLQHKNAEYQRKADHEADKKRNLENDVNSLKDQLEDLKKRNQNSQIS

[2] = molecular target: T1, ROCK2 protein; test: Degradation inducing activity of ROCK2 protein in HUVEC cells, Western blotting (Simple Western JESS); format: cell-based; parameters: endogenous in cells; host or cells: HUVEC (ATCC CRL-1730); settings: HUVEC, 24 h; for inhibition at 1 µM: degradation rate at 1 µM; for inhibition at 10 µM: degradation rate at 10 µM
Procedure, shortened: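 HUVEC cells treated 24 h with compound at 10 µM or 1 µM, then lysed; ROCK2 quantified by capillary Western (Simple Western JESS) using rabbit mAb D1B1, normalized to total loaded protein. Degradation rate (%) calculated relative to DMSO control set at 100%, binned A ≥75%, B 50–75%, C 25–50%, D <25%.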
Target sequence in this assay (O75116 whole entry): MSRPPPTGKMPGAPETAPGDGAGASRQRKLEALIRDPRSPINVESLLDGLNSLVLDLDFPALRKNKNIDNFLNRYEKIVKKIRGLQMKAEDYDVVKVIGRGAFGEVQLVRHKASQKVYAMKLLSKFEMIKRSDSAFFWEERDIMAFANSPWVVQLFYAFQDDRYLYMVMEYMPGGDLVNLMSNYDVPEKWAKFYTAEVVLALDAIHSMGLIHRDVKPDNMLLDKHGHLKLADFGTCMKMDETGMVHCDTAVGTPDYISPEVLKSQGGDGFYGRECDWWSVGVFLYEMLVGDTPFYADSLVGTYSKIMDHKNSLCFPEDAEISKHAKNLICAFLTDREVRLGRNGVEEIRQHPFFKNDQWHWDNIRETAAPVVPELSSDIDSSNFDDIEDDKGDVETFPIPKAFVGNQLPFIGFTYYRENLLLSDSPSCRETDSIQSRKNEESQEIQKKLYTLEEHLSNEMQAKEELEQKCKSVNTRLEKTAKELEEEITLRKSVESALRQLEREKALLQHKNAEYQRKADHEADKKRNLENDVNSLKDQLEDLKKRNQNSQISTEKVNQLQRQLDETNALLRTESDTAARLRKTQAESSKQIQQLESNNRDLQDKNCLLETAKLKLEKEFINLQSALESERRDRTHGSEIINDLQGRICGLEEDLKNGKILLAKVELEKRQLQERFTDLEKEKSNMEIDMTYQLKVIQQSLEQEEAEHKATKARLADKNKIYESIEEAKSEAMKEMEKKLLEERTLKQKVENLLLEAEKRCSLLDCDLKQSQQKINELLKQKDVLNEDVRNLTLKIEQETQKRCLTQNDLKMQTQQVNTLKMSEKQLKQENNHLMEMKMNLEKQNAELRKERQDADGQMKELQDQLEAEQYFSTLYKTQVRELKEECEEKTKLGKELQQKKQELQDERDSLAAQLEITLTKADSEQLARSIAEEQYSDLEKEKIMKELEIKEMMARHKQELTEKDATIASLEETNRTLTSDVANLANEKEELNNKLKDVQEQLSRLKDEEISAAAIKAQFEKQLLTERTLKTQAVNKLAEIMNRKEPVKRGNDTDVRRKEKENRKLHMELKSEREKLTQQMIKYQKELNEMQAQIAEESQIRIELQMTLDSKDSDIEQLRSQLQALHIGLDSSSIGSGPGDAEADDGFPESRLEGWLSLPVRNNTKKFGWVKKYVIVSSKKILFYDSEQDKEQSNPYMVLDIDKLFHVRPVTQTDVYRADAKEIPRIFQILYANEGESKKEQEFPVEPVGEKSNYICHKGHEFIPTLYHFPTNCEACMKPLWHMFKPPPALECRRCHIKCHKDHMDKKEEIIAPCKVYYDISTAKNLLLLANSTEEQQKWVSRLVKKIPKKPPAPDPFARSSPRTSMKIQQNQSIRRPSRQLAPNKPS

[3] = read-out: ROCK2 inhibition rate

Row | inhibition at 1 µM [2] [%] | inhibition at 10 µM [2] [%] | IC50 [1] [nM] | SMILES | further results
1 | 50 to 75 | ≥ 75 |  | C[C@@H]1CN(CC(=O)N2CC(C)(C)c3ncc(Cc4ccc(F)cc4)cc32)[C@@H](CN(C)CCOCCOCCOCCN[C@H](C)c2ccc(C(=O)Nc3ccncc3)cc2)CN1 [Example 3, 4-((R)-1-((2R,5R)-1-(2-(6-(4-Fluorobenzyl)-3,3-dimethyl-2,3-dihydro-1H-pyrrolo[3,2-b]pyridin-1-yl)-2-oxoethyl)-5-methylpiperazin-2-yl)-2-methyl-5,8,11-trioxa-2,14-diazahexadecan-15-yl)-N-(pyridin-4-yl)benzamide] | inhibition at 10 µM [1, 3]: ≥ 75%
2 | < 25 | ≥ 75 |  | C[C@@H]1CN(CC(=O)N2CC(C)(C)c3ncc(Cc4ccc(F)cc4)cc32)[C@@H](CN(C)CCOCCOCCN[C@H](Cc2cccc(F)c2)C(=O)Nc2ccc(-c3ccncc3)cc2)CN1 [Example 9, (R)-12-(3-Fluorobenzyl)-1-((2R,5R)-1-(2-(6-(4-fluorobenzyl)-3,3-dimethyl-2,3-dihydro-1H-pyrrolo[3,2-b]pyridin-1-yl)-2-oxoethyl)-5-methylpiperazin-2-yl)-2-methyl-N-(4-(pyridin-4-yl)phenyl)-5,8-dioxa-2,11-diazatridecan-13-amide] | inhibition at 1 µM [1, 3]: 25 to 50%
3 | 25 to 50 | ≥ 75 |  | C[C@@H]1CN(CC(=O)N2CC(C)(C)c3ncc(Cc4ccc(F)cc4)cc32)[C@@H](CN(C)CCOCCOCCNC[C@@H](C(=O)Nc2ccc3cnccc3c2)c2ccccc2)CN1 [Example 16, (S)-1-((2R,5R)-1-(2-(6-(4-Fluorobenzyl)-3,3-dimethyl-2,3-dihydro-1H-pyrrolo[3,2-b]pyridin-1-yl)-2-oxoethyl)-5-methylpiperazin-2-yl)-N-(isoquinolin-6-yl)-2-methyl-13-phenyl-5,8-dioxa-2,11-diazatetradecan-14-amide] | inhibition at 0.03 µM ([1]; evaluation concentration 0.03 µM, read-out: ROCK2 inhibition rate): 50 to 75%
4 | ≥ 75 | 50 to 75 |  | COC[C@H]1CN[C@H](C)CN1CC(=O)N1CC(C)(C)c2nc(CN(C)CCOCCOCCOCCN[C@H](C)c3ccc(C(=O)Nc4ccncc4)cc3)c(Cc3ccc(F)cc3)cc21 [Example 24, 4-((R)-1-(6-(4-Fluorobenzyl)-1-(2-((2R,5R)-2-(methoxymethyl)-5-methylpiperazin-1-yl)acetyl)-3,3-dimethyl-2,3-dihydro-1H-pyrrolo[3,2-b]pyridin-5-yl)-2-methyl-5,8,11-trioxa-2,14-diazahexadecan-15-yl)-N-(pyridin-4-yl)benzamide] | inhibition at 10 µM [1, 3]: ≥ 75%
5 | 50 to 75 | 50 to 75 |  | COC[C@H]1CN[C@H](C)CN1CC(=O)N1CC(C)(C)c2nc(CN(C)CCOCCOCCOCCN[C@H](Cc3cccc(F)c3)C(=O)Nc3ccc(-c4ccncc4)cc3)c(Cc3ccc(F)cc3)cc21 [Example 31, (R)-15-(3-Fluorobenzyl)-1-(6-(4-fluorobenzyl)-1-(2-((2R,5R)-2-(methoxymethyl)-5-methylpiperazin-1-yl)acetyl)-3,3-dimethyl-2,3-dihydro-1H-pyrrolo[3,2-b]pyridin-5-yl)-2-methyl-N-(4-(pyridin-4-yl)phenyl)-5,8,11-trioxa-2,14-diazahexadecan-16-amide] | inhibition at 1 µM [1, 3]: 25 to 50%
6 | ≥ 75 | ≥ 75 |  | COC[C@H]1CN[C@H](C)CN1CC(=O)N1CC(C)(C)c2ncc(Cc3ccccc3OCCOCCOCCNC[C@@H](C(=O)Nc3ccc4cnccc4c3)c3ccccc3)cc21 [Example 79, (S)-N-(Isoquinolin-6-yl)-3-((2-(2-(2-(2-((1-(2-((2R,5R)-2-(methoxymethyl)-5-methylpiperazin-1-yl)acetyl)-3,3-dimethyl-2,3-dihydro-1H-pyrrolo[3,2-b]pyridin-6-yl)methyl)phenoxy)ethoxy)ethoxy)ethyl)amino)-2-phenylpropanamide] | 
7 | 50 to 75 | 25 to 50 |  | COC[C@H]1CN[C@H](C)CN1CC(=O)N1CC(C)(C)c2ncc(Cc3ccccc3OCCOCCOCCOCCOCCNC[C@@H](C(=O)Nc3ccc4cnccc4c3)c3ccccc3)cc21 [Example 81, (S)-N-(Isoquinolin-6-yl)-1-(2-((1-(2-((2R,5R)-2-(methoxymethyl)-5-methylpiperazin-1-yl)acetyl)-3,3-dimethyl-2,3-dihydro-1H-pyrrolo[3,2-b]pyridin-6-yl)methyl)phenoxy)-17-phenyl-3,6,9,12-tetraoxa-15-azaoctadecan-18-amide] | 
8 | 25 to 50 | ≥ 75 |  | COC[C@H]1CN[C@H](C)CN1CC(=O)N1CC(C)(C)c2ncc(Cc3ccccc3OCCOCCOCCOCCOCCOCCNC[C@@H](C(=O)Nc3ccc4cnccc4c3)c3ccccc3)cc21 [Example 82, (S)-N-(Isoquinolin-6-yl)-1-(2-((1-(2-((2R,5R)-2-(methoxymethyl)-5-methylpiperazin-1-yl)acetyl)-3,3-dimethyl-2,3-dihydro-1H-pyrrolo[3,2-b]pyridin-6-yl)methyl)phenoxy)-20-phenyl-3,6,9,12,15-pentaoxa-18-azahenicosan-21-amide] | 
9 | 50 to 75 | ≥ 75 |  | COC[C@H]1CN[C@H](C)CN1CC(=O)N1CC(C)(C)c2ncc(Cc3ccccc3OCCOCCOCCOCCOCCOCCOCCNC[C@@H](C(=O)Nc3ccc4cnccc4c3)c3ccccc3)cc21 [Example 83, (S)-N-(Isoquinolin-6-yl)-1-(2-((1-(2-((2R,5R)-2-(methoxymethyl)-5-methylpiperazin-1-yl)acetyl)-3,3-dimethyl-2,3-dihydro-1H-pyrrolo[3,2-b]pyridin-6-yl)methyl)phenoxy)-23-phenyl-3,6,9,12,15,18-hexaoxa-21-azatetracosan-24-amide] | 
10 | 50 to 75 | 25 to 50 |  | COC[C@H]1CN[C@H](C)CN1CC(=O)N1CC(C)(C)c2ncc(Cc3ccccc3OCCOCCOCCOCCOCCOCCOCCOCCNC[C@@H](C(=O)Nc3ccc4cnccc4c3)c3ccccc3)cc21 [Example 84, (S)-N-(Isoquinolin-6-yl)-1-(2-((1-(2-((2R,5R)-2-(methoxymethyl)-5-methylpiperazin-1-yl)acetyl)-3,3-dimethyl-2,3-dihydro-1H-pyrrolo[3,2-b]pyridin-6-yl)methyl)phenoxy)-26-phenyl-3,6,9,12,15,18,21-heptaoxa-24-azaheptacosan-27-amide] | 
11 |  |  | 3000 to 10000 | COCCOCCN[C@H](C)c1ccc(C(=O)Nc2ccncc2)cc1 [Ref.Example 10, (R)-4-(1-((2-(2-Methoxyethoxy)ethyl)amino)ethyl)-N-(pyridin-4-yl)benzamide, reference compound] | 
12 |  |  | 3000 to 10000 | COCCOCCCN[C@H](C)c1ccc(C(=O)Nc2ccncc2)cc1 [Ref.Example 11, (R)-4-(1-((3-(2-Methoxyethoxy)propyl)amino)ethyl)-N-(pyridin-4-yl)benzamide, reference compound] | 
13 |  |  | 300 to 3000 | COCCOCCN[C@H](Cc1cccc(F)c1)C(=O)Nc1ccc(-c2ccncc2)cc1 [Ref.Example 12, (R)-3-(3-Fluorophenyl)-2-((2-(2-methoxyethoxy)ethyl)amino)-N-(4-(pyridin-4-yl)phenyl)propanamide, reference compound] | 
14 |  |  | 30 to 300 | COCCOCCCN[C@H](Cc1cccc(F)c1)C(=O)Nc1ccc(-c2ccncc2)cc1 [Ref.Example 13, (R)-3-(3-Fluorophenyl)-2-((3-(2-methoxyethoxy)propyl)amino)-N-(4-(pyridin-4-yl)phenyl)propanamide, reference compound] | 
15 |  |  | < 30 | COCCOCCNC[C@@H](C(=O)Nc1ccc2cnccc2c1)c1ccccc1 [Ref.Example 14, (S)-N-(Isoquinolin-6-yl)-3-((2-(2-methoxyethoxy)ethyl)amino)-2-phenylpropanamide, reference compound] | 
16 |  |  | < 30 | COCCOCCCNC[C@@H](C(=O)Nc1ccc2cnccc2c1)c1ccccc1 [Ref.Example 15, (S)-N-(Isoquinolin-6-yl)-3-((3-(2-methoxyethoxy)propyl)amino)-2-phenylpropanamide, reference compound] | 
